Consider 26 compounds from US7132425B2, “5-substituted-six-membered heteroaromatic glucokinase activators” (Hoffmann-La Roche Inc., priority 2002, dated 2006).

The test deals with C57BL/6J mice. In words: Glucokinase activator in vivo screen (blood glucose after oral dosing). The settings on record: oral gavage 50 mg/kg after two hour fast, readings 1, 2, 4 and 6 hours post dose, p≦0.05 for two consecutive assay time points. The method, then: Glucokinase Activator in vivo Screen Protocol: C57BL/6J mice are orally dosed via gavage with Glucokinase (GK) activator at 50 mg/kg body weight following a two hour fasting period. Blood glucose determinations are made five times during the six hour post-dose study period.
Mice (n=6) are weighed and fasted for a two hour period prior to oral treatment.
On to `CS(=O)(=O)c1ccc([C@@H](CC2CCCC2)C(=O)Nc2cnc(C#CCO)cn2)cc1Cl` [Example 10, 2(R)-(3-Chloro-4-methanesulfonyl-phenyl)-3-cyclopentyl-N-[5-(3-hydroxy-prop-1-ynyl)-pyrazin-2-yl]-propionamide], for which the “decrease in blood glucose compared to vehicle” value (“decrease in blood glucose” for short) is on record as “statistically significant (p≦0.05) decrease in blood glucose”.

For `CN(C)CC#Cc1cnc(NC(=O)[C@H](CC2CCCC2)c2ccc(S(C)(=O)=O)c(Cl)c2)cn1` [Example 11, 2(R)-(3-Chloro-4-methanesulfonyl-phenyl)-3-cyclopentyl-N-[5-(3-dimethylamino-prop-1-ynyl)-pyrazin-2-yl]-propionamide], the “decrease in blood glucose” value was “statistically significant (p≦0.05) decrease in blood glucose”.

On to `CN(C)CCCc1cnc(NC(=O)[C@H](CC2CCCC2)c2ccc(S(C)(=O)=O)c(Cl)c2)cn1` [Example 16, 2(R)-(3-Chloro-4-methanesulfonyl-phenyl)-3-cyclopentyl-N-[5-(3-dimethylamino-propyl)-pyrazin-2-yl]-propionamide], for which the “decrease in blood glucose” value was “statistically significant (p≦0.05) decrease in blood glucose”.

For `CS(=O)(=O)c1ccc(C(CC2CCCC2)C(=O)Nc2cnc(C=O)cn2)cc1Cl` (centres unmarked) [Example 18, 2-(3-Chloro-4-methanesulfonyl-phenyl)-3-cyclopentyl-N-(5-formyl-pyrazin-2-yl)-propionamide], the “decrease in blood glucose” value is “statistically significant (p≦0.05) decrease in blood glucose”.

As for `CS(=O)(=O)c1ccc(C(CC2CCCC2)C(=O)Nc2cnc(CC3SC(=O)NC3=O)cn2)cc1Cl` (centres unmarked) [Example 19, 2-(3-Chloro-4-methanesulfonyl-phenyl)-3-cyclopentyl-N-[5-(2,4-dioxo-thiazolidin-5-ylmethyl)-pyrazin-2-yl]-propionamide], the “decrease in blood glucose” value is “statistically significant (p≦0.05) decrease in blood glucose”.

As for `COC(OC)c1cnc(NC(=O)[C@H](CC2CCCC2)c2ccc(S(C)(=O)=O)c(Cl)c2)cn1` [Example 21, 2(R)-(3-Chloro-4-methanesulfonyl-phenyl)-3-cyclopentyl-N-(5-dimethoxymethyl-pyrazin-2-yl)-propionamide], the “decrease in blood glucose” value is listed as “statistically significant (p≦0.05) decrease in blood glucose”.

`CC(=O)c1cnc(NC(=O)C(CC2CCCC2)c2ccc(S(C)(=O)=O)c(Cl)c2)cn1` (centres unmarked) [Example 23, N-(5-Acetyl-pyrazin-2-yl)-2-(3-chloro-4-methanesulfonyl-phenyl)-3-cyclopentyl-propionamide]: the “decrease in blood glucose” value was “statistically significant (p≦0.05) decrease in blood glucose”.

For the compound `CS(=O)(=O)c1ccc([C@@H](CC2CCCC2)C(=O)Nc2cnc(C(O)C#N)cn2)cc1Cl` (stereo partly drawn) [Example 26, 2(R)-(3-Chloro-4-methanesulfonyl-phenyl)-N-[5-(cyano-hydroxy-methyl)-pyrazin-2-yl]-3-cyclopentyl-propionamide], the “decrease in blood glucose” value is recorded as “statistically significant (p≦0.05) decrease in blood glucose”.

For `C/C(=N/O)c1cnc(NC(=O)[C@H](CC2CCCC2)c2ccc(S(C)(=O)=O)c(Cl)c2)cn1` [Example 28, 2(R)-(3-Chloro-4-methanesulfonyl-phenyl)-3-cyclopentyl-N-[5-(1-(Z)-hydroxyimino-ethyl)-pyrazin-2-yl]-propionamide], the “decrease in blood glucose” value is “statistically significant (p≦0.05) decrease in blood glucose”.

As to `CS(=O)(=O)c1ccc([C@@H](CC2CCCC2)C(=O)Nc2cnc(C3OCCO3)cn2)cc1Cl` [Example 41, 2(R)-(3-Chloro-4-methanesulfonyl-phenyl)-3-cyclopentyl-N-(5-[1,3]dioxolan-2-yl-pyrazin-2-yl)-propionamide], the “decrease in blood glucose” value is recorded as “statistically significant (p≦0.05) decrease in blood glucose”.

As for `COCCOc1cnc(NC(=O)[C@H](CC2CCCC2)c2ccc(S(C)(=O)=O)c(Cl)c2)cn1` [Example 43, 2(R)-(3-Chloro-4-methanesulfonyl-phenyl)-3-cyclopentyl-N-5-(2-methoxyethoxy-pyrazin-2-yl)-propionamide], the “decrease in blood glucose” value is listed as “statistically significant (p≦0.05) decrease in blood glucose”.

Turning to `CS(=O)(=O)c1ccc([C@@H](CC2CCCC2)C(=O)Nc2cnc(C#CC3(O)CCOCC3)cn2)cc1` [Example 46, 3-Cyclopentyl-N-5-[(4-hydroxy-tetrahydropyran-4-yl-ethynyl)pyrazin-2-yl]-2(R)-(4-methanesulfonyl-phenyl)-propionamide], the “decrease in blood glucose” value is given as “statistically significant (p≦0.05) decrease in blood glucose”.

For the compound `COCC#Cc1cnc(NC(=O)[C@H](CC2CCCC2)c2ccc(S(C)(=O)=O)c(Cl)c2)cn1` [Example 47, 2(R)-(3-Chloro-4-methanesulfonyl-phenyl)-3-cyclopentyl-N-[5-(3-methoxy-prop-1-ynyl)-pyrazin-2-yl]-propionamide], the “decrease in blood glucose” value is reported as “statistically significant (p≦0.05) decrease in blood glucose”.

With `CS(=O)(=O)c1ccc([C@@H](CC2CCCC2)C(=O)Nc2cnc(CCC3(O)CCOCC3)cn2)cc1Cl` [Example 51, 2(R)-(3-Chloro-4-methanesulfonyl-phenyl)-3-cyclopentyl-N-[5-(4-hydroxy-tetrahydropyran-4-yl-ethyl)-pyrazin-2-yl]-propionamide], the “decrease in blood glucose” value is given as “statistically significant (p≦0.05) decrease in blood glucose”.

`CS(=O)(=O)c1ccc([C@@H](CC2CCCC2)C(=O)Nc2cnc(C#CCCO)cn2)cc1Cl` [Example 53, 2(R)-(3-Chloro-4-methanesulfonyl-phenyl)-3-cyclopentyl-N-[5-(4-hydroxy-but-1-ynyl)-pyrazin-2-yl]-propionamide]: the “decrease in blood glucose” value was “statistically significant (p≦0.05) decrease in blood glucose”.

Take `CS(=O)(=O)c1ccc([C@@H](CC2CCCC2)C(=O)Nc2cnc([C@H](O)CO)cn2)cc1Cl` [Example 54, 2(R)-(3-Chloro-4-methanesulfonyl-phenyl)-3-cyclopentyl-N-[5-(1(S),2-dihydroxy-ethyl)-pyrazin-2-yl]-propionamide]: the “decrease in blood glucose” value is “statistically significant (p≦0.05) decrease in blood glucose”.

In the case of `CS(=O)(=O)c1ccc([C@@H](CC2CCCC2)C(=O)Nc2cnc([C@@H](O)CO)cn2)cc1Cl` [Example 55], the “decrease in blood glucose” value is listed as “statistically significant (p≦0.05) decrease in blood glucose”.

`Cc1cc([C@@H](CC2CCCC2)C(=O)Nc2cnc(C#CC(C)(C)O)cn2)ccc1S(C)(=O)=O` [Example 57, 3-Cyclopentyl-N-[5-(3-hydroxy-3-methyl-but-1-ynyl)-pyrazin-2-yl]-2(R)-(4-methanesulfonyl-3-methyl-phenyl)-propionamide]: the “decrease in blood glucose” value is “statistically significant (p≦0.05) decrease in blood glucose”.

In the case of `Cc1cc([C@@H](CC2CCCC2)C(=O)Nc2cnc([C@H](O)CO)cn2)ccc1S(C)(=O)=O` [Example 58, 3-Cyclopentyl-N-[5-1(S),2-dihydroxy-ethyl]-2(R)-(4-methanesulfonyl-3-methyl)-propionamide], the “decrease in blood glucose” value is “statistically significant (p≦0.05) decrease in blood glucose”.

`Cc1cc([C@@H](CC2CCCC2)C(=O)Nc2cnc(C#CC3(O)CCOCC3)cn2)ccc1S(C)(=O)=O` [Example 59, 3-Cyclopentyl-N-[5-(4-hydroxy-tetrahydro-pyran-4-ylethynyl)-pyrazin-2-yl]-2(R)-(4-methanesulfonyl-3-methyl-phenyl)-propionamide]: the “decrease in blood glucose” value is reported as “statistically significant (p≦0.05) decrease in blood glucose”.

On to `CC(C)(O)C#Cc1cnc(NC(=O)[C@H](CC2CCCC2)c2ccc(S(C)(=O)=O)cc2)cn1` [Example 61, 3-Cyclopentyl-2(R)-(4-methanesulfonyl-phenyl)-N-[5-(3-hydroxy-3-methyl-but-1-ynyl)-pyrazin-2-yl]-propionamide], for which the “decrease in blood glucose” value is “statistically significant (p≦0.05) decrease in blood glucose”.

Consider `CS(=O)(=O)c1ccc([C@@H](CC2CCCC2)C(=O)Nc2cnc(OCCO)cn2)cc1Cl` [Example 62, 2(R)-(3-Chloro-4-methanesulfonyl-phenyl)-3-cyclopentyl-N-[5-(2-hydroxy-ethoxy)-pyrazin-2-yl]-propionamide], for which the “decrease in blood glucose” value is recorded as “statistically significant (p≦0.05) decrease in blood glucose”.

As to `CS(=O)(=O)c1ccc([C@@H](CC2CCCC2)C(=O)Nc2ccc(C3CCCO3)cn2)cc1Cl` (stereo partly drawn) [Example 69, 2(R)-(3-Chloro-4-methanesulfonyl-phenyl)-3-cyclopentyl-N-[5-(tetrahydro-furan-2-yl)-pyridin-2-yl]-propionamide], the “decrease in blood glucose” value is given as “statistically significant (p≦0.05) decrease in blood glucose”.

Take `CS(=O)(=O)c1ccc([C@@H](CC2CCCC2)C(=O)Nc2cnc(-c3ccco3)cn2)cc1Cl` [Example 70, 2(R)-(3-Chloro-4-methanesulfonyl-phenyl)-3-cyclopentyl-N-(5-furan-2-yl-pyrazin-2-yl)-propionamide]: the “decrease in blood glucose” value is “statistically significant (p≦0.05) decrease in blood glucose”.

With `CS(=O)(=O)c1ccc([C@@H](CC2CCCC2)C(=O)Nc2cnc(NCCO)cn2)cc1Cl` [Example 73, 2(R)-(3-Chloro-4-methanesulfonyl-phenyl)-3-cyclopentyl-N-[5-(2-hydroxy-ethylamino)-pyrazin-2-yl]-propionamide], the “decrease in blood glucose” value is “statistically significant (p≦0.05) decrease in blood glucose”.

On to `CS(=O)(=O)c1ccc([C@@H](CC2CCCC2)C(=O)Nc2cnc(C3=CCCCO3)cn2)cc1Cl` [Example 75, 2(1R)-(3-Chloro-4-methanesulfonyl-phenyl)-3-cyclopentyl-N-[5-(5,6-dihydro-4H-pyran-2-yl)-pyrazin-2-yl]-propionamide], for which the “decrease in blood glucose” value is “statistically significant (p≦0.05) decrease in blood glucose”.
